Converted amounts (≈) assume the structure as drawn.
How the values were obtained:
[1] = biological target: T1, Parathyroid hormone/parathyroid hormone-related peptide receptor (Homo sapiens, UniProt Q03431)
T1 sequence (Q03431 whole entry): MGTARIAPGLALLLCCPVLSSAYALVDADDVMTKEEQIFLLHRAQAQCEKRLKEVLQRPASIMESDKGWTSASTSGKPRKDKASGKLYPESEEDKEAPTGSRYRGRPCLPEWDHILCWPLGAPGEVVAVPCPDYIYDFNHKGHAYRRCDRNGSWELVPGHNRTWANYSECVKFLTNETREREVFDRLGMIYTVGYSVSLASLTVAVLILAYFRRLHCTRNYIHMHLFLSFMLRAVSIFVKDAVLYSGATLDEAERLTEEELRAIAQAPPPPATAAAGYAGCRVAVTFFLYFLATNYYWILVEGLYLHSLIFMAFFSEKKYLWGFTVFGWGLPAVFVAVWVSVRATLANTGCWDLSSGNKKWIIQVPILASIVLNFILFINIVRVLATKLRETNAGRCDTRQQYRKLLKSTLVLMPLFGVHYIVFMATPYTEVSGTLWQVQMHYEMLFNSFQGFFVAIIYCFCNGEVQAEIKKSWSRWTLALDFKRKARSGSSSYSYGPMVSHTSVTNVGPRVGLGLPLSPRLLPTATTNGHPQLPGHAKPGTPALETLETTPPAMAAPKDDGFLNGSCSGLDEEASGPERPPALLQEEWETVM
Description: Antagonist activity at human PTHR1 expressed in CHOK1 cells co-expressing Gs/Gq assessed as reduction in human PTH (1 to 34 residues)-induced cAMP accumulation incubated for 30 mins by HTRF assay

physchem = conditions: 1-octanol/phosphate buffered saline, pH 7.4
Description: Distribution coefficient, log D of the compound in 1-octanol and phosphate buffered saline at pH 7.4

[2] = Solubility of the compound in JP1 buffer at pH 1.2; format: physicochemical
[3] = Solubility of the compound in JP2 buffer at pH 6.8; format: physicochemical
[4] = Protein binding in rat plasma assessed as unbound fraction; format: ADME, cell-free
[5] = Clearance in Sprague-Dawley rat at 1 mg/kg, iv; format: ADME, organism-based; conditions: in vivo
[6] = Volume of distribution in Sprague-Dawley rat at 1 mg/kg, iv; format: ADME, organism-based; conditions: in vivo
[7] = Half life in Sprague-Dawley rat at 10 mg/kg, po; format: ADME, organism-based; conditions: in vivo
[8] = AUClast in Sprague-Dawley rat at 10 mg/kg, po; format: ADME, organism-based; design: dose 10 mg/kg, time 0 - last, route oral; conditions: in vivo
[9] = Oral bioavailability in Sprague-Dawley rat at 10 mg/kg; format: ADME, organism-based; conditions: in vivo
in vitro = conditions: rat, liver microsomes
Description: Metabolic stability in rat liver microsomes assessed as parent compound remaining after 0.5 hrs

| IC50 [1] | SMILES | also measured |
| --- | --- | --- |
| 6.8 µM | CC(C)C1(C)N=C(C2CCCCC2)c2ccc(Cl)cc2N(c2ccc(NCCN)cc2)C1=O (stereo not drawn) | – |
| > 100 µM | NCCNc1ccc(N2C(=O)CN(C3CCCCC3)C(=O)c3ccc(Cl)cc32)cc1 | – |
| > 100 µM | NCCNc1ccc(N2C(=O)CN(C3CCCCC3)Cc3ccc(Cl)cc32)cc1 | logD (physchem): 1.4 |
| 0.09 µM | CC1(C)N=C(C2CCCCC2)c2ccc(C#N)cc2N(c2ccc(NCCNC3CCOCC3)cc2)C1=O | solubility [2]: 760 µg/mL (≈ 1480 µM); solubility [3]: 500 µg/mL (≈ 973 µM); fraction unbound [4]: 0.029; clearance [5]: 46.8 mL/min/kg; Vd [6]: 4.7 L/kg; half-life [7]: 4.23 h; AUC(0-t) [8]: 1940 ng·h/mL; bioavailability [9]: 27%; logD (physchem): 2.9; remaining at 0.5 h (in vitro): 28% |
| 9.4 µM | CC(C)N1N=C(C2CCCCC2)c2ccc(Cl)cc2N(c2ccc(CC3=NCCN3)cc2)C1=O | logD (physchem): 4.2 |
| 14 µM | CC(C)C1N=C(C2CCCCC2)c2ccc(Cl)cc2N(c2ccc(NCCN)cc2)C1=O (stereo not drawn) | – |
| 2.3 µM | CC1(C)N=C(C2CCCCC2)c2ccc(C#N)cc2N(c2ccc(NCCNC3CCCCC3)cc2)C1=O | – |
| 44 µM | CN(C)C1N=C(C2CCCCC2)c2ccc(Cl)cc2N(c2ccc(NCCN)cc2)C1=O (stereo not drawn) | – |
| 23 µM | CC(C)CC1=NC(C)(C)C(=O)N(c2ccc(NCCN)cc2)c2cc(Cl)ccc21 | – |
| 0.18 µM | CC1(C)N=C(C2CCCCC2)c2ccc(C#N)cc2N(c2ccc(NCCNC3CCN(S(C)(=O)=O)CC3)cc2)C1=O | – |

| SMILES | IC50 [1] | also measured |
| --- | --- | --- |
| CC1(C)N=C(C2CCCCC2)c2ccc(C#N)cc2N(c2ccc(CCCN)cc2)C1=O | 7.6 µM | – |
| Cc1ccc2c(c1)N(c1ccc(NCCN)cc1)C(=O)C(C)(C)N=C2C1CCCCC1 | 6.1 µM | – |
| COc1ccc2c(c1)N(c1ccc(NCCN)cc1)C(=O)C(C)(C)N=C2C1CCCCC1 | 14 µM | – |
| CC1(C)N=C(C2CCCCC2)c2ccc(C#N)cc2N(c2ccc(NCCN)cc2)C1=O | 0.73 µM | logD (physchem): 2.1 |
| NCCNc1ccc(N2C(=O)CN=C(C3CCCCC3)c3ccc(Cl)cc32)cc1 | 38 µM | logD (physchem): 1.7 |
| CC1(C)N=C(C2CCCCC2)c2ccc(C#N)cc2N(c2ccc(OCCN)cc2)C1=O | 4 µM | – |
| CC1(C)N=C(c2ccccc2)c2ccc(Cl)cc2N(c2ccc(NCCN)cc2)C1=O | 45 µM | – |
| CC1(C)N=C(C2CCCCC2)c2ccc(C#N)cc2N(c2ccc(NCCCN)cc2)C1=O | 4.1 µM | – |
| CC1(C2=NC(C)(C)C(=O)N(c3ccc(NCCN)cc3)c3cc(Cl)ccc32)CCCCC1 | 16 µM | – |

Source: ChEMBL document CHEMBL4385663, “Discovery of novel PTHR1 antagonists: Design, synthesis, and structure activity relationships” (Bioorg Med Chem Lett, 2019)
